From patent US11466031B2, “Polymorphic forms of bictegravir and its sodium salt” (Mylan Laboratories Limited, priority 2018, dated 2022)

Experiments:
[1] = Storage stability: polymorph integrity by PXRD; assay type: physicochemical
Procedure: The crystalline forms of bictegravir disclosed herein may be characterized by X-ray powder diffraction pattern (PXRD). Samples of each polymorph were analyzed on a BRUKER D-8 Discover powder diffractometer equipped with goniometer of θ/2θ configuration and Lynx Eye detector. The Cu-anode X-ray tube was operated at 40 kV and 30 mA. The experiments were conducted over the 2θ range of 2.0°-50.0°, 0.030° step size and 0.4 seconds step time. […] The samples were analyzed by PXRD for polymorph integrity.

[2] = Storage stability: HPLC purity; assay type: physicochemical
[3] = at 25° C./60% RH, 6 months, listed as crystalline bictegravir Form M1
[4] = at 40° C./75% RH, 6 months, listed as crystalline bictegravir Form M1
[5] = at 25° C./60% RH, 6 months, listed as Form M2
[6] = at 40° C./75% RH, 6 months, listed as Form M2
[7] = at 25° C./60% RH, 6 months, listed as amorphous bictegravir sodium
[8] = at 40° C./75% RH, 6 months, listed as amorphous bictegravir sodium

SMILES	PXRD ([1]; at 25° C./60% RH, 1 months)	PXRD ([1]; at 25° C./60% RH, 2 months)	PXRD ([1]; at 25° C./60% RH, 3 months)	PXRD ([1]; at 25° C./60% RH, 6 months)	PXRD ([1]; at 25° C./60% RH, Initial)	PXRD ([1]; at 40° C./75% RH, 1 months)	PXRD ([1]; at 40° C./75% RH, 2 months)	PXRD ([1]; at 40° C./75% RH, 3 months)	PXRD ([1]; at 40° C./75% RH, 6 months)	PXRD ([1]; at 40° C./75% RH, Initial)	HPLC purity ([2]; at 25° C./60% RH, 1 months)	HPLC purity ([2]; at 25° C./60% RH, 2 months)	HPLC purity ([2]; at 25° C./60% RH, 3 months)	HPLC purity ([2]; at 25° C./60% RH, 6 months)	HPLC purity ([2]; at 25° C./60% RH, Initial)	HPLC purity ([2]; at 40° C./75% RH, 1 months)	HPLC purity ([2]; at 40° C./75% RH, 2 months)	HPLC purity ([2]; at 40° C./75% RH, 3 months)	HPLC purity ([2]; at 40° C./75% RH, 6 months)	HPLC purity ([2]; at 40° C./75% RH, Initial)	further results
O=C(NCc1c(F)cc(F)cc1F)c1cn2c(c(O)c1=O)C(=O)N1[C@H]3CC[C@H](C3)O[C@@H]1C2 [Bictegravir Form M1, bictegravir]	Stable	Stable	Stable	Stable	Crystalline	Stable	Stable	Stable	Stable	Crystalline	99.68	99.67	99.73	99.73	99.66	99.67	99.69	99.80	99.78	99.66	PXRD [1, 3]: no change; PXRD [1, 4]: no change; HPLC purity [2, 3]: no change; HPLC purity [2, 4]: no change
O=C(NCc1c(F)cc(F)cc1F)c1cn2c(c(O)c1=O)C(=O)N1[C@H]3CC[C@H](C3)O[C@@H]1C2 [Bictegravir Form M2, bictegravir]	Stable	Stable	Stable	Stable	Crystalline	Stable	Stable	Stable	Stable	Crystalline	99.68	99.67	99.73	99.73	99.68	99.67	99.69	99.73	99.71	99.68	PXRD [1, 5]: no change; PXRD [1, 6]: no change; HPLC purity [2, 5]: no change; HPLC purity [2, 6]: no change
O=C(NCc1c(F)cc(F)cc1F)c1cn2c(c([O-])c1=O)C(=O)N1[C@@H]3CC[C@@H](C3)O[C@H]1C2.[Na+] [Bictegravir Sodium Amorphous form, (2R,5S,13aR)-2,5-Methanopyrido[1′,2′:4,5]pyrazino[2,1-b][1,3]oxazepine-10-carboxamide, 2,3,4,5,7,9, 13,13a-octahydro-8-hydroxy-7,9-dioxo-N-[(2,4,6-trifluorophenyl)methyl]-, sodium salt (1:1)]	Stable	Stable	Stable	Stable	Amorphous	Stable	Stable	Stable	Stable	Amorphous	99.68	99.52	99.54	99.46	99.48	99.68	99.54	99.48	99.31	99.48	PXRD [1, 7]: no change; PXRD [1, 8]: no change; HPLC purity [2, 7]: no change; HPLC purity [2, 8]: no change
